Where two headings read alike, the source gives them in different places.

The values that follow come from patent USRE30241E, “Esters of 3-(hydroxy or hydroxymethyl)-4-hydroxyphenyl aminomethyl ketones” (Sterling Drug Inc., priority 1970, dated 1980).

The test system of experiment [1] is guinea pig bronchioles constricted by carbachol. The experiment in a line: Bronchodilator Test Method II, in vitro perfused guinea pig lung. To be noted: for ED50: carbachol (Doryl) 1:5 million. As for the experimental part:
In this method bronchodilator activity in vitro was determined by testing the effect of graded doses of the test compounds on guinea pig bronchioles constricted by carbachol, using the technique reported by Sollman and von Oettingen, Proc. Soc, Exp. Biol. Med., 25,692 (1928) as modified by Tainter, Pedden, and James, J. Pharm. Exp. Ther., 51, 371 (1934) and by Luduena, von Euler, Tullar, and Lands, Arch. intern. Pharmacol., III, 392 (1957).

Experiment [2] has as its system carbachol- or histamine-induced bronchoconstriction. The experiment in a line: Bronchodilator Test Method I, anesthetized dog, intravenous activity. In kind it is in vivo. To be noted: Canis lupus familiaris, read-out: Bronchodilatation; for inhibition in vivo at 0.03 mg/kg: 30 mcg/kg i.v.; for inhibition in vivo at 0.24 mg/kg: 240 mcg/kg i.v.; for inhibition in vivo at 0.0028 mg/kg: 2.8 mcg/kg i.v.; for inhibition in vivo at 0.0056 mg/kg: 5.6 mcg/kg i.v. The gist of the method:
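Pentobarbital-anesthetized (30 mg/kg i.v.), open-chest, artificially ventilated dogs were given i.v. carbachol (4-6 µg/kg) or histamine diphosphate (35-45 µg/kg). Test compound was given i.v. mixed with, after, or 1-10 min before the constrictor.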

Turning to `CCC(NC1CCCC1)C(O)c1ccc(OC(=O)CC(C)C)c(OC(=O)CC(C)C)c1.Cl` (stereo not drawn) [Example 138, 3,4-bis(isovaleryloxy)-alpha-[1-(cyclopentylamino)propyl]benzylalcohol hydrochloride], the ED50 in experiment [1] is 0.46 µg (base). Also, the “Duration, Mean” value in experiment [1] (dose 1.5 mcg (base)) stood at 25.4 ± 3.5 min. For the same compound, the inhibition in vivo at 0.03 mg/kg came out at 38% in experiment [2] (5 min, 5 min) and 0% in experiment [2] (0.5 h, 30 min). The inhibition in vivo at 0.24 mg/kg was 49% in experiment [2] (5 min, 5 min); 62% in experiment [2] (0.5 h, 30 min); 42% in experiment [2] (1 h, 60 min); 46% in experiment [2] (2 h, 120 min).

For the compound `CC(C)(C)NCC(O)c1ccc(OC(=O)C2(C)CC2)c(OC(=O)C2(C)CC2)c1.Cl` (stereo not drawn) [Example 13, 3,4-bis(1-methylcyclopropanecarbonyloxy)-alpha-(tert-butylaminomethyl)benzyl alcohol hydrochloride], the ED50 in experiment [1] is 0.45 µg (base). In experiment [1] (dose 0.79 mcg (base)), the “Duration, Mean” value is listed as 15 ± 1.7 min. Further, the inhibition in vivo at 0.0028 mg/kg is 52% in experiment [2] (2 min, 2 min); 48% in experiment [2] (0.5 h, 30 min); 0% in experiment [2] (1 h, 60 min). Moreover, the inhibition in vivo at 0.0056 mg/kg in experiment [2] (2 min, 2 min) is 69%; in experiment [2] (0.5 h, 30 min), 34%; in experiment [2] (1 h, 60 min), 10%.
